Consider 18 compounds from patent publication US10166216B2 (Rigel Pharmaceuticals, Inc., priority 2006, dated 2019).

The structures appear in SMILES notation.

Chain of Axl (P30530 26-894): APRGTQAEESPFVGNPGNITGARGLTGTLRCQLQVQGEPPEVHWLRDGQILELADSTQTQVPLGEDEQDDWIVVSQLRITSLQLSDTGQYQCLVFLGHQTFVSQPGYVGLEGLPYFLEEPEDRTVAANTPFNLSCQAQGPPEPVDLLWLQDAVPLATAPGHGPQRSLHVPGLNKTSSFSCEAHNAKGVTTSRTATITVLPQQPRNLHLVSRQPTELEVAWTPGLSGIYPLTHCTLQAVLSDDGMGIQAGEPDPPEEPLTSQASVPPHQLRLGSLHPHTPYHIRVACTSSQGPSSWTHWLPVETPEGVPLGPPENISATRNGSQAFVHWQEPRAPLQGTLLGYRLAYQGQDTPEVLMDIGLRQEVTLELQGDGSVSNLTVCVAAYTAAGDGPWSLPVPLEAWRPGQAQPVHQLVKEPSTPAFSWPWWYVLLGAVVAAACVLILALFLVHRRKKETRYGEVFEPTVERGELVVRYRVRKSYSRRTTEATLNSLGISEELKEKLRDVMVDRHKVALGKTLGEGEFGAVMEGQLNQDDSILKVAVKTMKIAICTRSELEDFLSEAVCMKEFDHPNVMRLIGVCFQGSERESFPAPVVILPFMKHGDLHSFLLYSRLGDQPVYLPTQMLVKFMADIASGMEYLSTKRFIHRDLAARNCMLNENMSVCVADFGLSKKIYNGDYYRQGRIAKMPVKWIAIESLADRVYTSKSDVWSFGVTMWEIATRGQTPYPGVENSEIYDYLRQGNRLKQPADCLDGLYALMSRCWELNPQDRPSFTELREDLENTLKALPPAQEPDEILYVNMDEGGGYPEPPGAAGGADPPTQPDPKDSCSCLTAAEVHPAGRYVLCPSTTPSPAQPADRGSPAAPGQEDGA

The first assay addresses Axl (Homo sapiens (Human), UniProt P30530). Kind of assay: Phospho-Akt in-cell Western assay (Axl-antibody cross-linking stimulation). It counts as cell-based. To be noted: inhibition of Axl activity, Hela cells, phospho-Akt readout; Table 7, formula (Ia4). A digest of the protocol: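 HeLa cells on poly-L-lysine, starved 24 hrs with Axl/Fc, pre-treated with compound 1 hr at 37° C., then stimulated 5 min with Axl primary/secondary antibody cluster. Fixed cells probed for phospho-Akt by chemiluminescent in-cell Western; signal normalized to crystal violet cell number.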
Compound `COc1cc2ncnc(-n3nc(Nc4ccc5c(c4)CCC(N(C)C4CC6CCC4C6)CC5)nc3N)c2cc1OC` (stereo not drawn) [Compound 224, 1-(6,7-dimethoxy-quinazolin-4-yl)-N^3-(7-(N-methyl-N-bicyclo[2.2.1]heptan-2-yl)amino-6,7,8,9-tetrahydro-5H-benzo[7]annulene-2-yl)-1H-1,2,4-triazole-3,5-diamine] had an IC50 of under 1000 nM.

The assay is the same for the next values; noted with them: inhibition of Axl activity, phospho-Akt in-cell Western assay.
`Cc1cc(Nc2nc(N)n(-c3nc(Cl)nc4c(C)csc34)n2)ccc1N1CCN(C2CC3CCC2C3)CC1` (stereo not drawn) [Compound 225, 1-(7-methyl-2-chlorothieno[3,2-d]pyrimidin-4-yl)-N^3-(3-methyl-4-(4-(bicyclo[2.2.1]heptan-2-yl)piperazin-1-yl)phenyl)-1H-1,2,4-triazole-3,5-diamine] showed an IC50 of under 1000 nM.

Turning to `Cc1nnc(-n2nc(Nc3ccc(N4CCN([C@H]5C[C@@H]6CC[C@H]5C6)CC4)c(F)c3)nc2N)c2sccc12` [Compound 226, 1-(4-methylthieno[3,2-d]pyridazin-7-yl)-N^3-(3-fluoro-4-(4-((1S,2S,4R)-bicyclo[2.2.1]heptan-2-yl)piperazin-1-yl)phenyl)-1H-1,2,4-triazole-3,5-diamine], the IC50 was under 1000 nM. `COc1ccc2nc(Cl)c(-n3nc(Nc4ccc(N5CCN([C@H]6C[C@@H]7CC[C@H]6C7)CC5)c(F)c4)nc3N)nc2c1` [Compound 227, 1-(2-chloro-6-methoxy-quinoxalin-3-yl)-N^3-(3-fluoro-4-(4-((1S,2S,4R)-bicyclo[2.2.1]heptan-2-yl)piperazin-1-yl)phenyl)-1H-1,2,4-triazole-3,5-diamine]: the IC50 was 1000 to 10000 nM.

For the compound `COc1cc2c(C)nnc(-n3nc(Nc4ccc(N5CCN([C@H]6C[C@@H]7CC[C@H]6C7)CC5)c(F)c4)nc3N)c2cc1OC` [Compound 228, 1-(6,7-dimethoxy-1-methylphthalazin-4-yl)-N^3-(3-fluoro-4-(4-((1S,2S,4R)-bicyclo[2.2.1]heptan-2-yl)piperazin-1-yl)phenyl)-1H-1,2,4-triazole-3,5-diamine], the IC50 is over 20000 nM.

The compound `Nc1nc(Nc2ccc(N3CCN([C@H]4C[C@@H]5CC[C@H]4C5)CC3)c(F)c2)nn1-c1ccc(-c2ccccc2)nn1` [Compound 229, 1-(6-phenylpyridazin-3-yl)-N^3-(3-fluoro-4-(4-((1S,2S,4R)-bicyclo[2.2.1]heptan-2-yl)piperazin-1-yl)phenyl)-1H-1,2,4-triazole-3,5-diamine] returned a concentration for half-maximal inhibition (IC50) of 1000 to 10000 nM. In turn, `Nc1nc(Nc2ccc(N3CCN([C@H]4CC5CCC4C5)CC3)c(F)c2)nn1-c1cc(-c2ccccc2)ccn1` (stereo partly drawn) [Compound 230, 1-(4-phenylpyridin-2-yl)-N^3-(3-fluoro-4-(4-((2S)-bicyclo[2.2.1]heptan-2-yl)piperazin-1-yl)phenyl)-1H-1,2,4-triazole-3,5-diamine] displayed an IC50 of 1000 to 10000 nM. The same measure, in the same setting: then `Cc1nnc(-n2nc(Nc3ccc(N4CCN([C@H]5CC6CCC5C6)CC4)c(Cl)c3)nc2N)c2sccc12` (stereo partly drawn) [Compound 231, 1-(4-methylthieno[3,2-d]pyridazin-7-yl)-N^3-(3-chloro-4-(4-((2)S-bicyclo[2.2.1]heptan-2-yl)piperazin-1-yl)phenyl)-1H-1,2,4-triazole-3,5-diamine], with under 1000 nM; and `Cc1cc(Nc2nc(N)n(-c3nnc(C)c4ccsc34)n2)ccc1N1CCN([C@H]2C[C@@H]3CC[C@H]2C3)CC1` [Compound 232, 1-(4-methylthieno[3,2-d]pyridazin-7-yl)-N^3-(3-methyl-4-(4-((1S,2S,4R)-bicyclo[2.2.1]heptan-2-yl)piperazin-1-yl)phenyl)-1H-1,2,4-triazole-3,5-diamine], with under 1000 nM. `Cc1cccc(-c2nc(-n3nc(Nc4ccc(N5CCN(C6CC7CCC6C7)CC5)cc4)nc3N)c3scc(C)c3n2)c1` (stereo not drawn) [Compound 233, 1-(7-methyl-2-m-tolylthieno[3,2-d]pyrimidin-4-yl)-N^3-(4-(4-(bicyclo[2.2.1]heptan-2-yl)piperazin-1-yl)phenyl)-1H-1,2,4-triazole-3,5-diamine] came in with an IC50 of over 20000 nM. As for `Cc1csc2c(-n3nc(Nc4ccc(N5CCN(C6CC7CCC6C7)CC5)cc4)nc3N)nc(-c3cccc(C#N)c3)nc12` (stereo not drawn) [Compound 234, 1-(7-methyl-2-(3-cyanophenyl)thieno[3,2-d]pyrimidin-4-yl)-N^3-(4-(4-(bicyclo[2.2.1]heptan-2-yl)piperazin-1-yl)phenyl)-1H-1,2,4-triazole-3,5-diamine], the IC50 is under 1000 nM. Turning to `Cc1csc2c(-n3nc(Nc4ccc(N5CCN([C@H]6CC7CCC6C7)CC5)cc4)nc3N)nc(-c3ccccc3Cl)nc12` (stereo partly drawn) [Compound 235, 1-(7-methyl-2-(2-chlorophenyl)thieno[3,2-d]pyrimidin-4-yl)-N^3-(4-(4-((2S)-bicyclo[2.2.1]heptan-2-yl)piperazin-1-yl)phenyl)-1H-1,2,4-triazole-3,5-diamine], the IC50 is 1000 to 10000 nM. As to `Cc1csc2c(-n3nc(Nc4ccc(N5CCN([C@H]6CC7CCC6C7)CC5)cc4)nc3N)nc(-c3ccc4c(c3)OCO4)nc12` (stereo partly drawn) [Compound 236, 1-(7-methyl-2-benzo[d][1,3]dioxole-5-ylthieno[3,2-d]pyrimidin-4-yl)-N^3-(4-(4-((2S)-bicyclo[2.2.1]heptan-2-yl)piperazin-1-yl)phenyl)-1H-1,2,4-triazole-3,5-diamine], the IC50 was over 20000 nM.

In turn, `Cc1csc2c(-n3nc(Nc4ccc(N5CCN([C@H]6CC7CCC6C7)CC5)cc4)nc3N)nc(-c3ccncc3)nc12` (stereo partly drawn) [Compound 237, 1-(7-methyl-2-pyridin-4-ylthieno[3,2-d]pyrimidin-4-yl)-N^3-(4-(4-((2S)-bicyclo[2.2.1]heptan-2-yl)piperazin-1-yl)phenyl)-1H-1,2,4-triazole-3,5-diamine] registered an IC50 of under 1000 nM.

`Cc1csc2c(-n3nc(Nc4ccc(N5CCN([C@H]6CC7CCC6C7)CC5)cc4)nc3N)nc(-c3cccc(NS(C)(=O)=O)c3)nc12` (stereo partly drawn) [Compound 238, 1-(7-methyl-2-(3-(methylsulfonyl)aminophenyl)thieno[3,2-d]pyrimidin-4-yl)-N^3-(4-(4-((2S)-bicyclo[2.2.1]heptan-2-yl)piperazin-1-yl)phenyl)-1H-1,2,4-triazole-3,5-diamine] yielded an IC50 of 1000 to 10000 nM. On the same count and under the same terms, then `Cc1csc2c(-n3nc(Nc4ccc(N5CCN([C@H]6CC7CCC6C7)CC5)cc4)nc3N)nc(C=CCN3CCCC3)nc12` (stereo partly drawn) [Compound 239, 1-(7-methyl-2-(3-(pyrrolidin-1-yl)prop-1-enyl)thieno[3,2-d]pyrimidin-4-yl)-N^3-(4-(4-((2S)-bicyclo[2.2.1]heptan-2-yl)piperazin-1-yl)phenyl)-1H-1,2,4-triazole-3,5-diamine], with 1000 to 10000 nM; and `Cc1csc2c(-n3nc(Nc4ccc(N5CCN([C@H]6CC7CCC6C7)CC5)cc4)nc3N)nc(C=CCN3CCN(C)CC3)nc12` (stereo partly drawn) [Compound 240, 1-(7-methyl-2-(3-(4-methylpiperazin-1-yl)prop-1-enyl)thieno[3,2-d]pyrimidin-4-yl)-N^3-(4-(4-((2S)-bicyclo[2.2.1]heptan-2-yl)piperazin-1-yl)phenyl)-1H-1,2,4-triazole-3,5-diamine], with 1000 to 10000 nM. In turn, `Cc1csc2c(-n3nc(Nc4ccc(N5CCN([C@H]6CC7CCC6C7)CC5)cc4)nc3N)nc(/C=C/CN3CCOCC3)nc12` (stereo partly drawn) [Compound 241, 1-((E)-7-methyl-2-(3-(morpholin-4-yl)prop-1-enyl)thieno[3,2-d]pyrimidin-4-yl)-N^3-(4-(4-((2S)-bicyclo[2.2.1]heptan-2-yl)piperazin-1-yl)phenyl)-1H-1,2,4-triazole-3,5-diamine] came in with an IC50 of 1000 to 10000 nM.
